The values below come from patent US20140303166A1, “COSMETIC METHOD FOR CHANGING THE APPEARANCE OF EYES” (priority 2013, published 2014).

Where a name gives a salt, the structure may show the parent alone.

The test system of this assay is eyelids. Kind of assay: topical application to the eyelids (eyelid retraction / eye-widening). Particulars: topically applied, alone or in combination. Format: in vivo. An excerpt:
Topical treatments to which the current application is directed include ointments, creams, and solutions that contain one or more of the compounds travoprost, dorzolamide hydrochloride, and timolol maleate, alone or in combination, and/or one or more chemically-related compounds and may also include pure forms of various types of prostaglandin, synthetic prostaglandin, and synthetic prostaglandin analogues.
On to `CCNC(=O)CCCC=CCC1C(O)CC(O)C1C=CC(O)CCc1ccccc1` (stereo not drawn) [bimatoprost, 7-[3,5-dihydroxy-2-(3-hydroxy-5-phenyl-pent-1-enyl)-cyclopentyl]-N-ethyl-hept-5-enamide], for which the “eyelid retraction after topical application to the eyelids” value was “cause the eyelids to retract more completely”.
Under `CCN[C@H]1C[C@H](C)S(=O)(=O)c2sc(S(N)(=O)=O)cc21` [dorzolamide hydrochloride, (4S,6S)-2-ethylamino-4-methyl-5,5-dioxo-5λ^6,7dithiabicyclo[4.3.0] nona-8,10-diene-8-sulfonamide] stands “cause the eyelids to retract more completely”; under `CC(C)OC(=O)CCC/C=C\C[C@@H]1[C@@H](CC[C@@H](O)CCc2ccccc2)[C@H](O)C[C@@H]1O` [latanoprost, isopropyl (Z)-7-[(1R,2R,3R,5S)-3,5-dihydroxy-2-[(3R)3-hydroxy-5-phenylpentyl]-cyclopentyl] hept-5-enoate], “cause the eyelids to retract more completely”; under `CC(C)(C)NC[C@H](O)COc1nsnc1N1CCOCC1` [timolol maleate, (S)-1-(tert-butylamino)-3-[(4-morpholin-4-yl-1,2,5-thiadiazol-3-yl)oxy]propan-2-ol], “cause the eyelids to retract more completely”.
Regarding `CC(C)OC(=O)CCCC=CCC1C(O)CC(O)C1C=CC(O)COc1cccc(C(F)(F)F)c1` (stereo not drawn) [travoprost, propan-2-yl 7-[3,5-dihydroxy-2-[3-hydroxy-4-[3-(trifluoromethyl)phenoxy]-but-1-enyl]-cyclopentyl]hept-5-enoate], the “eyelid retraction after topical application to the eyelids” value was “cause the eyelids to retract more completely”.
Under `CCCCCCCC(=O)CC[C@@H]1[C@@H](C/C=C\CCCC(=O)OC(C)C)[C@@H](O)C[C@H]1O` [unoprostone, isopropyl (Z)-7-[(1R,2R,3R,5 S)-3,5-dihydroxy-2-(3-oxodecyl)cyclopentyl] hept-5-enoic acid] stands “cause the eyelids to retract more completely”.
